Data as given in PubChem BioAssay AID2060892 (Molecular Pharmacology Branch, DTP, NCI, 2025).

Tested on: HOP-62 complex spheroids with HUVEC/MSC, viability
Assay: Anticancer human tumor HOP-62 cell line growth inhibition [RAS];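 further: spheroids exposed to agents for seven days before readout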;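 on viability, T/C: 100% = DMSO vehicle control viability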
Conditions: for IC50: curve of first compound; for viability, T/C: stronger effect = lower value
Outline: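 Tumour cells grown as complex spheroids with HUVEC endothelial cells and mesenchymal stem cells, treated with RAS pathway inhibitor combinations. Each agent spans half-log steps from near clinical Cmax, or 10 microM where Cmax is unknown.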

[1] = second compound 0.00316 µM, first compound 0.0316 µM
[2] = second compound 0.00316 µM, first compound 0.1 µM
[3] = second compound 0.00316 µM, first compound 0.316 µM
[4] = second compound 0.00316 µM, first compound 1 µM
[5] = second compound 0.00316 µM, first compound 3.16 µM
[6] = second compound 0.00316 µM, first compound 10 µM
[7] = second compound 0.01 µM, first compound 0.0316 µM
[8] = second compound 0.01 µM, first compound 0.1 µM
[9] = second compound 0.01 µM, first compound 0.316 µM
[10] = second compound 0.01 µM, first compound 1 µM
[11] = second compound 0.01 µM, first compound 3.16 µM
[12] = second compound 0.01 µM, first compound 10 µM
[13] = second compound 0.0316 µM, first compound 0.0316 µM
[14] = second compound 0.0316 µM, first compound 0.1 µM
[15] = second compound 0.0316 µM, first compound 0.316 µM
[16] = second compound 0.0316 µM, first compound 1 µM
[17] = second compound 0.0316 µM, first compound 3.16 µM
[18] = second compound 0.0316 µM, first compound 10 µM
[19] = second compound 0.1 µM, first compound 0.0316 µM
[20] = second compound 0.1 µM, first compound 0.1 µM
[21] = second compound 0.1 µM, first compound 0.316 µM
[22] = second compound 0.1 µM, first compound 1 µM
[23] = second compound 0.1 µM, first compound 3.16 µM
[24] = second compound 0.1 µM, first compound 10 µM
[25] = second compound 0.316 µM, first compound 0.0316 µM
[26] = second compound 0.316 µM, first compound 0.1 µM
[27] = second compound 0.316 µM, first compound 0.316 µM
[28] = second compound 0.316 µM, first compound 1 µM
[29] = second compound 0.316 µM, first compound 3.16 µM
[30] = second compound 0.316 µM, first compound 10 µM
[31] = second compound 1 µM, first compound 0.0316 µM
[32] = second compound 1 µM, first compound 0.1 µM
[33] = second compound 1 µM, first compound 0.316 µM
[34] = second compound 1 µM, first compound 1 µM
[35] = second compound 1 µM, first compound 3.16 µM
[36] = second compound 1 µM, first compound 10 µM

Cc1nc(N2CCC3(CC2)COC(C)C3N)c(CO)nc1Sc1ccnc(N)c1Cl (stereo unspecified) + C=CC(=O)N1CCN(c2nc(OCC3CCCN3C)nc3c(F)c(-c4nc(N)cc(C)c4C(F)(F)F)c(Cl)cc23)C(C)C1
IC50 (second compound 0.00316 µM): 138 nM | IC50 (second compound 0.01 µM): 72 nM | IC50 (second compound 0.0316 µM): 43.9 nM | IC50 (second compound 0.1 µM): 52 nM | IC50 (second compound 0.316 µM): 56.7 nM | IC50 (second compound 1 µM): < 31.6 nM | viability, T/C [1]: 68.6% | viability, T/C [2]: 52.6% | viability, T/C [3]: 40.3% | viability, T/C [4]: 28.7% | viability, T/C [5]: 14.1% | viability, T/C [6]: 13.8% | viability, T/C [7]: 58.6% | viability, T/C [8]: 46.1% | viability, T/C [9]: 32.8% | viability, T/C [10]: 21.3% | viability, T/C [11]: 10.6% | viability, T/C [12]: 8.87% | viability, T/C [13]: 52% | viability, T/C [14]: 44.8% | viability, T/C [15]: 30.5% | viability, T/C [16]: 17.4% | viability, T/C [17]: 13.7% | viability, T/C [18]: 9.06% | viability, T/C [19]: 56.5% | viability, T/C [20]: 41.5% | viability, T/C [21]: 29.1% | viability, T/C [22]: 19.5% | viability, T/C [23]: 10.4% | viability, T/C [24]: 9.33% | viability, T/C [25]: 54.8% | viability, T/C [26]: 44.8% | viability, T/C [27]: 31.1% | viability, T/C [28]: 15.5% | viability, T/C [29]: 12.1% | viability, T/C [30]: 10.7% | viability, T/C [31]: 49.6% | viability, T/C [32]: 37.8% | viability, T/C [33]: 26.1% | viability, T/C [34]: 15.1% | viability, T/C [35]: 11.7% | viability, T/C [36]: 8.55%

NC1c2ccccc2OC12CCN(c1cnc3c(N4CCCc5ncccc54)n[nH]c3n1)CC2 (stereo unspecified) + C=CC(=O)N1CCN(c2nc(OCC3CCCN3C)nc3c(F)c(-c4nc(N)cc(C)c4C(F)(F)F)c(Cl)cc23)C(C)C1
IC50 (second compound 0.00316 µM): < 31.6 nM | IC50 (second compound 0.01 µM): < 31.6 nM | IC50 (second compound 0.0316 µM): < 31.6 nM | IC50 (second compound 0.1 µM): < 31.6 nM | IC50 (second compound 0.316 µM): < 31.6 nM | IC50 (second compound 1 µM): < 31.6 nM | viability, T/C [1]: 45.5% | viability, T/C [2]: 30.2% | viability, T/C [3]: 15% | viability, T/C [4]: 13.9% | viability, T/C [5]: 9.04% | viability, T/C [6]: 8.74% | viability, T/C [7]: 34.9% | viability, T/C [8]: 22.6% | viability, T/C [9]: 11.9% | viability, T/C [10]: 11.9% | viability, T/C [11]: 9.09% | viability, T/C [12]: 10.8% | viability, T/C [13]: 30.6% | viability, T/C [14]: 18.5% | viability, T/C [15]: 12.2% | viability, T/C [16]: 10.9% | viability, T/C [17]: 10.3% | viability, T/C [18]: 7.74% | viability, T/C [19]: 30.8% | viability, T/C [20]: 15.1% | viability, T/C [21]: 11% | viability, T/C [22]: 10.3% | viability, T/C [23]: 9.12% | viability, T/C [24]: 8.09% | viability, T/C [25]: 28.3% | viability, T/C [26]: 14.4% | viability, T/C [27]: 11.2% | viability, T/C [28]: 10.5% | viability, T/C [29]: 6.82% | viability, T/C [30]: 8.51% | viability, T/C [31]: 29.5% | viability, T/C [32]: 15.3% | viability, T/C [33]: 10.8% | viability, T/C [34]: 9.35% | viability, T/C [35]: 10.7% | viability, T/C [36]: 5.7%

Nc1ccn(C2OC(CO)C(O)C2(F)F)c(=O)n1 (stereo unspecified) + C=CC(=O)N1CCN(c2nc(OCC3CCCN3C)nc3c(F)c(-c4nc(N)cc(C)c4C(F)(F)F)c(Cl)cc23)C(C)C1
IC50 (second compound 0.00316 µM): 4.79 nM | IC50 (second compound 0.01 µM): 4 nM | IC50 (second compound 0.0316 µM): 3.8 nM | IC50 (second compound 0.1 µM): 3.57 nM | IC50 (second compound 0.316 µM): 3.88 nM | IC50 (second compound 1 µM): 3.32 nM | viability, T/C (second compound 0.00316 µM, first compound 0.00316 µM): 71.5% | viability, T/C (second compound 0.00316 µM, first compound 0.01 µM): 11.7% | viability, T/C [1]: 4.51% | viability, T/C [2]: 3.58% | viability, T/C [3]: 3.88% | viability, T/C [4]: 4.22% | viability, T/C (second compound 0.01 µM, first compound 0.00316 µM): 61% | viability, T/C (second compound 0.01 µM, first compound 0.01 µM): 7.13% | viability, T/C [7]: 4.46% | viability, T/C [8]: 3.64% | viability, T/C [9]: 3.98% | viability, T/C [10]: 4.49% | viability, T/C (second compound 0.0316 µM, first compound 0.00316 µM): 57.3% | viability, T/C (second compound 0.0316 µM, first compound 0.01 µM): 11.7% | viability, T/C [13]: 4.71% | viability, T/C [14]: 4.6% | viability, T/C [15]: 4.09% | viability, T/C [16]: 3.59% | viability, T/C (second compound 0.1 µM, first compound 0.00316 µM): 54.7% | viability, T/C (second compound 0.1 µM, first compound 0.01 µM): 10.5% | viability, T/C [19]: 3.96% | viability, T/C [20]: 3.63% | viability, T/C [21]: 4.57% | viability, T/C [22]: 3.1% | viability, T/C (second compound 0.316 µM, first compound 0.00316 µM): 58.8% | viability, T/C (second compound 0.316 µM, first compound 0.01 µM): 9.95% | viability, T/C [25]: 5.61% | viability, T/C [26]: 4.79% | viability, T/C [27]: 5.44% | viability, T/C [28]: 3.53% | viability, T/C (second compound 1 µM, first compound 0.00316 µM): 51.9% | viability, T/C (second compound 1 µM, first compound 0.01 µM): 6.83% | viability, T/C [31]: 4.34% | viability, T/C [32]: 3.74% | viability, T/C [33]: 4.68% | viability, T/C [34]: 3.28%
